# Data published in US7144903B2, “CCR4 antagonists” (Amgen Inc., priority 2001, dated 2006).
# Target: T1, CCR4 (Homo sapiens, UniProt P51679)
# T1 construct: cells expressing CCR4 (e.g., CEM cells, available from the ATCC); host or cells: CEM cells
# T1 sequence (P51679 1-360): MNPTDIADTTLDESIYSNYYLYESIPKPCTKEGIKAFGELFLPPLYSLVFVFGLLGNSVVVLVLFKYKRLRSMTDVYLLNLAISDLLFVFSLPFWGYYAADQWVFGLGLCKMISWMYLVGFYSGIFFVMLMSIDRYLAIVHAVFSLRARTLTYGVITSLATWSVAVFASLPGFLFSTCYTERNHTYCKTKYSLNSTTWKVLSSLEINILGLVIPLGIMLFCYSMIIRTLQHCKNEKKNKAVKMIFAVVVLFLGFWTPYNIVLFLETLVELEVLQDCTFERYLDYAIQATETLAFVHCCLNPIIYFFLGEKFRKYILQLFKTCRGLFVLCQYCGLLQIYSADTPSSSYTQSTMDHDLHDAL
# Experiment: CCR4 binding assay: inhibition of 125I-TARC binding to cells expressing CCR4 (e.g., CEM cells)
# Details: not given
# From the text: This example illustrates a CCR4 binding assay that can be used for evaluating the compounds of the present invention.
# Detection of Radiolabelled TARC and/or MDC Binding to CCR4
# ^125I-labelled TARC and MDC are available from commercial sources (e.g., Amersham-Pharmacia or Perkin Elmer Life Sciences). All buffers and materials are available from commercial sources (e.g., Gibco BRL, Sigma). To measure binding of ^125I-TARC or ^125I-MDC to cells expressing CCR4 (e.g., CEM cells, available from the ATCC), the ^125I-TARC or ^125I-MDC is diluted to a concentration of approximately 200 pM in a buffered saline solution (e.g., RPMI supplemented with 0.5% bovine serum albumin), and added to an equal volume of a suspension of cells (e.g., CEM cells at 5×10^6 cells/mL). The resulting mixture is incubated for a period of time (e.g., 2 hours). The unbound ^125I-TARC or ^125I-MDC is separated from the cells by filtration, e.g., by passage through GF/B filter plate (Packard Biosciences) pre-treated with 0.3% polyethyleneimine (Sigma), using a Packard Filtermate 96 (Packard Biosciences). The amount of ^125I-TARC or ^125I-MDC retained with the cells on the filterplate is measured by adding a small amount of scintillation fluid (e.g., 50 μL of Microscint-20, obtained from Packard Biosciences), and reading scintillation on appropriate detection equipment, e.g., a Packard TopCount 383 (Packard Biosciences).
# Non-specific binding of ^125I-TARC or ^125I-MDC can be estimated by measuring the amount of ^125I-TARC or ^125I-MDC retained with the cells on the filterplate when the assay is performed in the presence of a large excess of unlabelled TARC or MDC.
# Inhibition of ^125I-TARC or ^125I-MDC binding to CCR4 is defined as a decrease in the retention of ^125I-TARC or ^125I-MDC to the cells on the filterplate.
# The assay described above varies only moderately from standardly used procedures, e.g., Imai et al. (1997) J. Biol. Chem. 272:15036–15042, Imai et al. (1998) J. Biol. Chem. 273:1764–1768.
row,Compound,IC50 [nM]
1,Clc1ccc2nc(Nc3cccc4ccccc34)sc2c1 [Compound 18],> 1000

# Same assay, conditions: CCR4 antagonist activity, inhibition of 125I-TARC binding; read-out: IC50
row,Compound,IC50 [nM]
1,CC(C)(C)c1csc(Nc2ccccc2N2CCOCC2)n1 [Compound 1],< 1000
2,Cc1cccc(Nc2nc(C(C)(C)C)cs2)c1C [Compound 2],> 1000
3,CC(C)(C)c1csc(NCc2ccccc2)n1 [Compound 3],< 1000
4,CC(C)(C)c1csc(Nc2ccc(Cl)c3ccccc23)n1 [Compound 4],< 1000
5,CC(C)(C)c1csc(Nc2cccc3c2CCCC3)n1 [Compound 5],> 1000
6,Cc1c(Br)cccc1Nc1nc(C(C)(C)C)cs1 [Compound 6],> 1000
7,CC(C)(C)c1csc(Nc2cccc3ncccc23)n1 [Compound 7],< 1000
8,CC(C)(C)Cc1csc(Nc2cccc3ccccc23)n1 [Compound 8],> 1000
9,CCCc1sc(Nc2cccc3ccccc23)nc1C(C)(C)C [Compound 9],> 1000
10,Cc1sc(Nc2cccc3ccccc23)nc1C(C)(C)C [Compound 10],> 1000
11,CC(C)(C)c1csc(Nc2cccc3ccccc23)n1 [Compound 11],> 1000
12,CC(C)c1csc(Nc2cccc3ccccc23)n1 [Compound 12],> 1000
13,CCOC(=O)CC(C)(C)c1csc(Nc2cccc3ccccc23)n1 [Compound 13],> 1000
14,"CC(=O)c1csc(Nc2cccc3ccccc23)n1 [Compound 15, 4-Acetoyl-2-naphthylamino thiazole]",> 1000
15,c1ccc(CN2CCc3sc(Nc4cccc5ccccc45)nc3C2)cc1 [Compound 19],< 1000
16,"CC(C)(C)c1csc(Nc2cccnc2CCCC2CCCC2)n1 [Compound 20, (4-tert-Butyl-thiazol-2-yl)-[2-(3-cyclopentyl-propyl)-pyridin-3-yl]-amine]",> 1000
17,"Cn1ccc2c(Nc3nc(C(C)(C)C)cs3)cccc21 [Compound 21, (4-tert-Butyl-thiazol-2-yl)-(1-methyl-1H-indol-4-yl)-amine]",< 1000
18,"Cn1ccc2c(Nc3nc(CN(Cc4ccccc4OC(F)(F)F)CC4CCCCC4)cs3)cccc21 [Compound 24, (4-{[Cyclohexylmethyl-(2-trifluoromethoxy-benzyl)-amino]-methyl}-thiazol-2-yl)-(1-methyl-1H-indol-4-yl)-amine]",< 1000
19,FC(F)(F)c1ccccc1CN(Cc1csc(Nc2cccc3ncccc23)n1)CC1CCCCC1 [Compound 35],< 1000
20,"Cc1cccc(Nc2nc(CN(CC(C)C)CC(C)C)co2)c1C [Compound 45, {4-[(Diisobutylamino)-methyl]-oxazol-2-yl}-(2,3-dimethyl-phenyl)-amine]",< 1000
21,CC(C)CCCc1ccccc1Nc1nc(C(C)(C)C)cs1 [Compound 49],< 1000
